Key:
[1] = test system: HEK293T/17 cells expressing γ1-R299G AMPK; assay: α-Thr172 phosphorylation immunoblot, HEK293T/17 cells expressing AMP-insensitive γ1 mutant R299G; format: cell-based; conditions: 2.5 µM
Method: To explore this dose-dependent response, we used HEK293T/17 cells transiently expressing WT γ1AMPK or the AMP-insensitive γ1 mutant R299G (Supplementary Figure S4A). […] One explanation is that 2.5 µM MK-8722 caused indirect activation of AMPK (α-Thr172 phosphorylation) by inducing a metabolic stress leading to rises in AMP/ATP and ADP/ATP ratios. We examined the effect of MK-8722 incubation on C2C12 mitochondrial function (Supplementary Figure S4B–I).
HEK293T/17, HEK293T, COS7, HeLa and PC3 cells (ATCC) were maintained in Dulbecco's Modified Eagle's medium (DMEM; Sigma–Aldrich) supplemented with 10% fetal bovine serum (FBS; Assay Matrix) at 37°C and 5% CO2. Primary hepatocytes from wild type mice were prepared using the collagenase perfusion method and cultured as described previously. […]
(§1) All samples were separated on 12% SDS–PAGE gels and transferred to an Immobilon-FL PVDF membrane (Merck Millipore). […] Immunoblots were visualised on the Odyssey Infrared Imaging System (LI-COR Biosciences) and immunoreactive bands analysed and quantified using Image Studio Software (LI-COR Biosciences).
Lysates were assessed for phosphorylation of AMPKα-Thr172 by immunoblot. n = 3, data presented as mean T172 phosphorylation (arbitrary units) ± SEM. […] (J) Lysates were assessed for total protein content following the respiration assay.

[2] = test system: HepG2 cells and C2C12 myotubes; parameters: method as in PMID 28705990; conditions: cited from earlier work
[3] = test system: HeLa cells; assay: Immunoblot of AMPK signalling in HeLa cells; format: cell-based; conditions: 2.5 µM, 1 h
Method: (§2) To evaluate the efficacy of MSG011 in cellulo, we incubated mouse primary hepatocytes with 2.5 µM MSG011 for 60 min and tracked changes in phosphorylation of AMPK α-Thr172 (marker of activation) and the AMPK substrate acetyl-CoA carboxylase (ACC) Ser79 (AMPK signalling marker).
(§3) HEK293T/17, HEK293T, COS7, HeLa and PC3 cells (ATCC) were maintained in Dulbecco's Modified Eagle's medium (DMEM; Sigma–Aldrich) supplemented with 10% fetal bovine serum (FBS; Assay Matrix) at 37°C and 5% CO2. Primary hepatocytes from wild type mice were prepared using the collagenase perfusion method and cultured as described previously. Cultures were incubated with fresh DMEM (no FBS) for 2 h prior to 1 h treatment with MSG011 (dissolved in DMSO) or phenformin (dissolved in H2O). Adherent HEK293T/17 cells at ∼50% confluency were triply transfected with AMPK α1 (pcDNA3.1 vector), β1 (COOH-terminal MYC fusion, pcDNA3.1 vector) and WT γ1 or γ1-R299G mutant (NH2-terminal HA fusion, pMT2 vector) in the presence of FuGENE HD transfection reagent (Promega) as per the manufacturers protocol. […]
as §1

[4] = test system: COS7 cells; assay: Immunoblot of AMPK signalling in COS7 cells; format: cell-based; conditions: COS7, 2.5 µM, 1 h
Method: as §2, §3, §1

## O[C@@H]1CO[C@H]2[C@@H]1OC[C@H]2Oc1nc2nc(-c3ccc(-c4ccccc4)cc3)c(Cl)cc2[nH]1 [MK-8722, reference compound]
[1]
  decrease of induced α-Thr172 phosphorylation relative to WT γ1 cells: ~55%
[1]; 60 min
  effect on phosphorylation of α-Thr172: largely abrogated
[2]; above 1 µM
  α-Thr172 phosphorylation: elevated α-Thr172
[2]; below 1 µM, in the absence of increased α-Thr172 phosphorylation
  AMPK signalling: stimulate AMPK signalling

## CC(=O)NC1CC=C(c2ccc(-c3nc4nc(Oc5ccc(C)c(C(=O)O)c5)[nH]c4cc3Cl)cc2)CC1 (stereo not drawn) [MSG011, 5-((5-(4′-Acetamido-2′,3′,4′,5′-tetrahydro-[1,1′-biphenyl]-4-yl)-6-chloro-1H-imidazo[4,5-b]pyridin-2-yl)oxy)-2-methylbenzoic acid]
[3]
  AMPK signalling (phosphorylation of ACC-Ser79 and raptor-Ser792): significantly activated AMPK
[4]
  AMPK signalling (phosphorylation of ACC-Ser79 and raptor-Ser792): at levels comparable to extreme energy stress
